Results on four compounds are retold here after patent US8003694B2, “Crystal of hydroxynorephedrin derivative hydrochloride ¼ hydrate” (Kissei Pharmaceutical Co., Ltd., priority 2005, dated 2011).

The structures appear in SMILES notation.

A short description of series [1]: Solubility Test (shake flask at 37° C., HPLC). The conditions noted are these: for solubility in The First Fluid: first fluid of disintegration test of Japanese Pharmacopoeia; for solubility in The First Fluid / solubility in water: shaken 125 strokes per minute, constant or maximum concentration over 0.5-20 hours. Type of series: physicochemical. The procedure:
Each crystal polymorph (0.4 g), which was prepared by the above method, was taken in 50 mL Erlenmeyer flask respectively, and to the mixture was added 20 mL of the mediums as defined below. The flask was shaken at 125 strokes per minute at 37° C. After 0.5, 1, 2 and 20 hours from the start of shaking, 1.5 mL of the suspension was filtered through a membrane filter (pore size: 0.2 μm). The concentration of the filtrate for each crystal polymorph was determined by HPLC method to determine the solubility. The concentration where the concentration became constant by the temporal measurements of the concentration was determined to be the solubility of each polymorph, and the results are shown in Table 1. […] In the cases of crystalline form F and amorphous form, since these samples were dissolved completely in each medium within 0.5 hours after the start of the test, additional samples were added appropriately to the test flasks at the point of 0.5 hours after the start and the solubility tests were continued. The mediums: water or the first fluid of disintegration test of Japanese Pharmacopoeia (hereinafter referred to as The First Fluid).

Series [2] is described as follows: Chemical Stability Test (storage at 60° C. for 1 week, HPLC and appearance). Type of series: physicochemical. The procedure:
Crystalline form F obtained in Example 1 was stored at 60° C. for 1 week to investigate the chemical stability. As the chemical stability, the residual percentage of ethyl (−)-2-[4-[2-[[(1S,2R)-2-hydroxy-2-(4-hydroxyphenyl)-1-methylethyl]amino]ethyl]-2,5-dimethylphenoxy]-acetate was determined by HPLC, and the change in appearance was also observed.

Take `CCOC(=O)COc1cc(C)c(CCN[C@@H](C)[C@H](O)c2ccc(O)cc2)cc1C.Cl` [crystal form B, ethyl (−)-2-[4-[2-[[(1S,2R)-2-hydroxy-2-(4-hydroxyphenyl)-1-methylethyl]amino]-ethyl]-2,5-dimethylphenoxy]acetate hydrochloride]: in series [1] (hydrochloride), the “solubility in The First Fluid” value is 2.9 mg/mL and the solubility in water stood at 12.5 mg/mL.

On to `CCOC(=O)COc1cc(C)c(CCN[C@@H](C)[C@H](O)c2ccc(O)cc2)cc1C.Cl` [crystal form A, ethyl (−)-2-[4-[2-[[(1S,2R)-2-hydroxy-2-(4-hydroxyphenyl)-1-methylethyl]amino]-ethyl]-2,5-dimethylphenoxy]acetate hydrochloride], for which, in series [1] (hydrochloride), the “solubility in The First Fluid” value came to 2.4 mg/mL and the solubility in water is 10.7 mg/mL.

As to `CCOC(=O)COc1cc(C)c(CCN[C@@H](C)[C@H](O)c2ccc(O)cc2)cc1C.Cl` [crystal form F, ethyl (−)-2-[4-[2-[[(1S,2R)-2-hydroxy-2-(4-hydroxyphenyl)-1-methylethyl]amino]ethyl]-2,5-dimethylphenoxy]acetate hydrochloride ¼ hydrate], the “solubility in The First Fluid relative to crystalline forms A and B and amorphous form” value in series [1] (The First Fluid) is on record as “about 5 times”. In series [1] (hydrate), the “solubility in The First Fluid” value amounted to 11.8 mg/mL and the solubility in water worked out at 24.3 mg/mL. Further, in series [2] (after 1 week at 60° C.), the appearance entry is given as “white” and the “residual percentage (chemical purity %)” value was determined as 98.1%. Besides, in series [2] (at start), the appearance entry is reported as “white” and the “residual percentage (chemical purity %)” value was determined as 98.1%. Moreover, the “changes in chemical purity and appearance” value in series [2] (stored at 60° C. for 1 week) is “no changes”.

Take `CCOC(=O)COc1cc(C)c(CCN[C@@H](C)[C@H](O)c2ccc(O)cc2)cc1C.Cl` [amorphous form, ethyl (−)-2-[4-[2-[[(1S,2R)-2-hydroxy-2-(4-hydroxyphenyl)-1-methylethyl]amino]ethyl]-2,5-dimethylphenoxy]acetate hydrochloride]: in series [1] (hydrochloride), the “solubility in The First Fluid” value turned out to be 2.6 mg/mL and the solubility in water is 17.8 mg/mL.
